Test results from BindingDB's records for doi:10.1016/j.bmcl.2015.12.061 (Auburn University, 2016).

Biological target: S-adenosylhomocysteine hydrolase (Homo sapiens)
Test: Inhibition of S-adenosylhomocysteine hydrolase (unknown origin)

IC50 [nM]	SMILES
13	Nc1ncc(Br)c2c1ncn2C1=C[C@H](CO)[C@@H](O)[C@H]1O
2.7	Nc1ncc(Br)c2c1ncn2[C@@H]1C=C(CO)[C@@H](O)[C@H]1O
10000	Nc1ncc(Br)c2c1ncn2C1=C[C@@H](CO)[C@H](O)[C@@H]1O
